What was measured:
Format in all cases: biochemical
[1] = target: T1, Lck (Homo sapiens, UniProt P06239); test: Kinase inhibition assay (33P transfer), Lck; settings: Table 3; read-out: Lck-1
T1 construct: Kinases are expressed as either kinase domains or full length constructs; made in house
Method in brief: (§1)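 Filterless plate radiometric format: immobilized poly(Glu,Tyr) 4:1 or poly(Arg,Ser) 3:1, 33P-labelled ATP, tagged recombinant kinase (some with regulatory partners). Incorporated label counted after phosphoric acid wash.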

[2] = target: T2, Src (Homo sapiens, UniProt P12931); test: Kinase inhibition assay (33P transfer), Src; settings: Table 6, Src-1 kinase inhibition class
T2 construct: Kinases are expressed as either kinase domains or full length constructs; made in house
Method in brief: (§2)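 Kinase domains or full-length enzymes, GST- or polyHis-tagged, were expressed in E. coli or baculovirus High Five cells and affinity-purified. Transfer of 33PO4 from ATP onto plate-bound poly(Glu,Tyr) 4:1 or poly(Arg,Ser) 3:1 was counted by liquid scintillation after a 0.5% phosphoric acid wash. IC50 = concentration halving incorporation.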

[3] = target: T3, Fyn (Homo sapiens, UniProt P06241); test: Kinase inhibition assay (33P transfer), Fyn; settings: read-out: Fyn-1
T3 construct: Kinases are expressed as either kinase domains or full length constructs; made in house
T3 sequence (P06241 whole entry, species assumed, the tested form may be a part): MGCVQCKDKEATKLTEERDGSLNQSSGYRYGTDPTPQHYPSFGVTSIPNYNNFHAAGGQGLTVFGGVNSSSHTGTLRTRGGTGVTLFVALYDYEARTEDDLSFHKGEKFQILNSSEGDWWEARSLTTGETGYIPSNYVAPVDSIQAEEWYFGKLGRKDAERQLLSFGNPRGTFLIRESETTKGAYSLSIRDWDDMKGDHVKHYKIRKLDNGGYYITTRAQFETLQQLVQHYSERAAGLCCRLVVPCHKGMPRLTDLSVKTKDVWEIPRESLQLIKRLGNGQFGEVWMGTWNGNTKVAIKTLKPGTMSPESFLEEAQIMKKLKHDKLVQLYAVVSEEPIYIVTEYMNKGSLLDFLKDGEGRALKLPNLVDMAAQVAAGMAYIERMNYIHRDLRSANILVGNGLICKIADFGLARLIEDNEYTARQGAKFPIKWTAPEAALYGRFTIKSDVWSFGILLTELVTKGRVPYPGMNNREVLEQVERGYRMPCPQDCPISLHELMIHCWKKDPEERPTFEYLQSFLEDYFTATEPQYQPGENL
Method in brief: as §2

[4] = target: T4, Zap-70 (Homo sapiens, UniProt P43403); test: Kinase inhibition assay (33P transfer), Zap-70; settings: Table 3; read-out: Zap-1
T4 construct: Kinases are expressed as either kinase domains or full length constructs; made in house
T4 sequence (P43403 1-619): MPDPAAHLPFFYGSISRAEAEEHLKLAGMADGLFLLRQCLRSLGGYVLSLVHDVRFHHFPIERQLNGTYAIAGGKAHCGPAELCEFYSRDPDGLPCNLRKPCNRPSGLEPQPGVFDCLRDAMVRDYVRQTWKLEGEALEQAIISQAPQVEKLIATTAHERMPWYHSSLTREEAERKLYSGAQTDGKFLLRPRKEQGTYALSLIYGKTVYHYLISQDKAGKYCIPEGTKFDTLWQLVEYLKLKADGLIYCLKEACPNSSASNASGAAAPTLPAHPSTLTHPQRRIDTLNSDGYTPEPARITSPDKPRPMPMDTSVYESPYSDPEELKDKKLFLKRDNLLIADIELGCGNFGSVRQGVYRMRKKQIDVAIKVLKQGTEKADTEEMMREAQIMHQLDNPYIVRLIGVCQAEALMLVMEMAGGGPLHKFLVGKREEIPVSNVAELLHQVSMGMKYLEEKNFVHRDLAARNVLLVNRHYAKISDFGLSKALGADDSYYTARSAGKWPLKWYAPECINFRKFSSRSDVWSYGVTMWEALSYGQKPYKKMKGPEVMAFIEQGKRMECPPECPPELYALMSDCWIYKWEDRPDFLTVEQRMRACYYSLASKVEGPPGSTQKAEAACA
Method in brief: as §1

[5] = target: T5, Itk (Homo sapiens, UniProt Q08881); test: Kinase inhibition assay (33P transfer), Itk; settings: Table 3; read-out: Itk-1
T5 construct: Kinases are expressed as either kinase domains or full length constructs; made in house
T5 sequence (Q08881 1-620): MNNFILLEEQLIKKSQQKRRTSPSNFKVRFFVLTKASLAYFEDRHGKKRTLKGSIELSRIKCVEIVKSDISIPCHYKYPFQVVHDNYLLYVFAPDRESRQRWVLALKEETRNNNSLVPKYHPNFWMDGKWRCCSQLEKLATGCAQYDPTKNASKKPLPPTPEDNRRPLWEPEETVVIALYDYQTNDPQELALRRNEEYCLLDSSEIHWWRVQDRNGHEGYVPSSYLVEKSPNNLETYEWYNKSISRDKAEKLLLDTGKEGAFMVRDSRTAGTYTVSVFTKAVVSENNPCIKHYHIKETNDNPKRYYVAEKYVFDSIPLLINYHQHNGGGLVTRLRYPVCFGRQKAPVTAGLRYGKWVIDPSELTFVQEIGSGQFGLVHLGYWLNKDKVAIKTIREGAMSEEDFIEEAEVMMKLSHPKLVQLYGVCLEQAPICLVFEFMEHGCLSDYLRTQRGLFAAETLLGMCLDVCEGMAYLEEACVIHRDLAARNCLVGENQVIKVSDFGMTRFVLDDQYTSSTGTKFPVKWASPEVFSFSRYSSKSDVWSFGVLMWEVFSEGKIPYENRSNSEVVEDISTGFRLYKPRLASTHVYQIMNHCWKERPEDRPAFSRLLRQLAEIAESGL
Method in brief: as §2

[6] = target: T6, EGFR (Homo sapiens, UniProt P00533); test: Kinase inhibition assay (33P transfer), EGFR; settings: Table 2, kinase inhibition class; read-out: EGFR-1
T6 construct: Kinases are expressed as either kinase domains or full length constructs; made in house
T6 sequence (P00533 25-1210, species assumed): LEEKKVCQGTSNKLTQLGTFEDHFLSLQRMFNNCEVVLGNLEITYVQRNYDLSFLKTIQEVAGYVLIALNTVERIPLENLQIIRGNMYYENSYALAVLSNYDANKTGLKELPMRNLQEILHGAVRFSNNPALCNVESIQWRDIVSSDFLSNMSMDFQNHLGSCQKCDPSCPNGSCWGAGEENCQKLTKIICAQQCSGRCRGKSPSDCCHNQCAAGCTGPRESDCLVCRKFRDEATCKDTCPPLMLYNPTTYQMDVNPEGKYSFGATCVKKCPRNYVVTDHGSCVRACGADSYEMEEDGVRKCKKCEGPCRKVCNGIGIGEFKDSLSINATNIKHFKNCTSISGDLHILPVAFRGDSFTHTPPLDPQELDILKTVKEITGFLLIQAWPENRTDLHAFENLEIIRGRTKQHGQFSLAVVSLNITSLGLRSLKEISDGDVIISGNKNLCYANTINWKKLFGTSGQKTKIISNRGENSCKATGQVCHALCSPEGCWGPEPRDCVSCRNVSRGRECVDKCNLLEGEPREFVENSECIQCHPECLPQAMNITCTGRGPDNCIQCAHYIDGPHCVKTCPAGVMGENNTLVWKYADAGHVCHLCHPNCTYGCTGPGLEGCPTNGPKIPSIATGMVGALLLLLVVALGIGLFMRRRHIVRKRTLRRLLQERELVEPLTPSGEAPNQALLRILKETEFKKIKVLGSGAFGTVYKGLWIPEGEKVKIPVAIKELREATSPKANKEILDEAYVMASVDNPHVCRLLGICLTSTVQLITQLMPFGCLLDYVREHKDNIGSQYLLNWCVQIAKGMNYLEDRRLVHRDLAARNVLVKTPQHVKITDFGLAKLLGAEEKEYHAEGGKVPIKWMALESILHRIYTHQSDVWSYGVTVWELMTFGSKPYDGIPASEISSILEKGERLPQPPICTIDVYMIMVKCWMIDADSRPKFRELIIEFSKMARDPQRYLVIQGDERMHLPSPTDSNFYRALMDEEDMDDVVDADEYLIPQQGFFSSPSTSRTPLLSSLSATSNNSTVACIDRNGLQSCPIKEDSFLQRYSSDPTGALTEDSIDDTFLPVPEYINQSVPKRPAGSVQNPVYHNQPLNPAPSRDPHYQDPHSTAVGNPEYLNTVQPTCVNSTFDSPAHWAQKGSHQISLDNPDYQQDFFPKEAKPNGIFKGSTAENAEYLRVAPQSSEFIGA
Method in brief: as §2

[7] = target: T7, Kdr (Homo sapiens, UniProt P35968); test: Kinase inhibition assay (33P transfer), Kdr; settings: Table 3; read-out: KDR-1
T7 construct: Kinases are expressed as either kinase domains or full length constructs; made in house
Method in brief: as §1

[8] = target: T8, Flt-1 (Homo sapiens, UniProt P17948); test: Kinase inhibition assay (33P transfer), Flt-1
T8 construct: Kinases are expressed as either kinase domains or full length constructs; made in house
Method in brief: as §2

[9] = target: T9, Tek (Homo sapiens, UniProt Q02763); test: Kinase inhibition assay (33P transfer), Tek; settings: read-out: Tek-1
T9 construct: Kinases are expressed as either kinase domains or full length constructs; made in house
Method in brief: as §2

[10] = target: T10, PDGFRB (Homo sapiens, UniProt P09619); test: Kinase inhibition assay (33P transfer), PDGFRB; settings: read-out: PDGFRB-1
T10 construct: Kinases are expressed as either kinase domains or full length constructs; made in house
T10 sequence (P09619 33-1106, species assumed): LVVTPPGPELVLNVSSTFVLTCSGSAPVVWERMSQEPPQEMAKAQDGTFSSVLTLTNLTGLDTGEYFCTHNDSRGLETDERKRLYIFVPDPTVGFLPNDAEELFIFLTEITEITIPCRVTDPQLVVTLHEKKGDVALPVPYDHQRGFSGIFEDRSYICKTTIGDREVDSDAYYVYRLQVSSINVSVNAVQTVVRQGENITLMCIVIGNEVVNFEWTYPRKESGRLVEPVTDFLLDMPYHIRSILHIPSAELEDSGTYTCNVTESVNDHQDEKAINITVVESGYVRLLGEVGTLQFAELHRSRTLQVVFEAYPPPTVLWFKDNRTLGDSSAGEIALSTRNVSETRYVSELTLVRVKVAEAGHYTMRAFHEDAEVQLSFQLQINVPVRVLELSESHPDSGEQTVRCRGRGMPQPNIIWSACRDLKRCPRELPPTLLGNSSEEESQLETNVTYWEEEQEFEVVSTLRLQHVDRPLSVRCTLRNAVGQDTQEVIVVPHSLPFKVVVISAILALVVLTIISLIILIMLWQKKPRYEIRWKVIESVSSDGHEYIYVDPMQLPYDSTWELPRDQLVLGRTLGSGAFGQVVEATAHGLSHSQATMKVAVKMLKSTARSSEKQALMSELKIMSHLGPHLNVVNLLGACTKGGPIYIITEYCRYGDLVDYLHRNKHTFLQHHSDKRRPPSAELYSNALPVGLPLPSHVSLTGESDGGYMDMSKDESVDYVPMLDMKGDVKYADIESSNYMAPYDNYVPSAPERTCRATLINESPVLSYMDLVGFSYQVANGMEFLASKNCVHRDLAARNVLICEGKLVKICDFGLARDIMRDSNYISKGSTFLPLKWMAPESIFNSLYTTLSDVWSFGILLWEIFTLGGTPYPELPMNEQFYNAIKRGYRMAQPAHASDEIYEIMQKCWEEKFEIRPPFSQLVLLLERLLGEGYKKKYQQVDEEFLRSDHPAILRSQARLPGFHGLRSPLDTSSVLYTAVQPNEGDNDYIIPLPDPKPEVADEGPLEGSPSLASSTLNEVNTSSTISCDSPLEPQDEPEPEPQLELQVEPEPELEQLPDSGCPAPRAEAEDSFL

[11] = target: T11, Hck-1 (Homo sapiens, UniProt P08631); test: Kinase inhibition assay (33P transfer), Hck; settings: Table 6, Hck-1 kinase inhibition class
T11 construct: Kinases are expressed as either kinase domains or full length constructs; made in house
T11 sequence (P08631 whole entry, the tested form may be a part): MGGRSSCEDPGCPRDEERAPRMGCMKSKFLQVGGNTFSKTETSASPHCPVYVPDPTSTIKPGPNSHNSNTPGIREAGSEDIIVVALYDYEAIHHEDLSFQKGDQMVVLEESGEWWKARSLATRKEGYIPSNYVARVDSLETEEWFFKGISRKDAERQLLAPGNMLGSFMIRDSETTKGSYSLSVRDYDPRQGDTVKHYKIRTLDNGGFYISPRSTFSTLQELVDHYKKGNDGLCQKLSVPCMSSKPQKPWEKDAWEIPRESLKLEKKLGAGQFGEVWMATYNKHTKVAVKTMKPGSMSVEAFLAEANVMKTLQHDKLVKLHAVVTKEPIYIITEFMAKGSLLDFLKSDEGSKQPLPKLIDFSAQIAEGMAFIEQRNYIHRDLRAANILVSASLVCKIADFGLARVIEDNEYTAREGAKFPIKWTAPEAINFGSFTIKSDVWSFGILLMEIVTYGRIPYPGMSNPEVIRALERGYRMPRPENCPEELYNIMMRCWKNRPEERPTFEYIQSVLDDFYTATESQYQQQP

[12] = target: T12, FGFR1 (Homo sapiens, UniProt P11362); test: Kinase inhibition assay (33P transfer), FGFR1; settings: read-out: FGFR1-1
T12 construct: Kinases are expressed as either kinase domains or full length constructs; made in house
T12 sequence (P11362 22-822, species assumed): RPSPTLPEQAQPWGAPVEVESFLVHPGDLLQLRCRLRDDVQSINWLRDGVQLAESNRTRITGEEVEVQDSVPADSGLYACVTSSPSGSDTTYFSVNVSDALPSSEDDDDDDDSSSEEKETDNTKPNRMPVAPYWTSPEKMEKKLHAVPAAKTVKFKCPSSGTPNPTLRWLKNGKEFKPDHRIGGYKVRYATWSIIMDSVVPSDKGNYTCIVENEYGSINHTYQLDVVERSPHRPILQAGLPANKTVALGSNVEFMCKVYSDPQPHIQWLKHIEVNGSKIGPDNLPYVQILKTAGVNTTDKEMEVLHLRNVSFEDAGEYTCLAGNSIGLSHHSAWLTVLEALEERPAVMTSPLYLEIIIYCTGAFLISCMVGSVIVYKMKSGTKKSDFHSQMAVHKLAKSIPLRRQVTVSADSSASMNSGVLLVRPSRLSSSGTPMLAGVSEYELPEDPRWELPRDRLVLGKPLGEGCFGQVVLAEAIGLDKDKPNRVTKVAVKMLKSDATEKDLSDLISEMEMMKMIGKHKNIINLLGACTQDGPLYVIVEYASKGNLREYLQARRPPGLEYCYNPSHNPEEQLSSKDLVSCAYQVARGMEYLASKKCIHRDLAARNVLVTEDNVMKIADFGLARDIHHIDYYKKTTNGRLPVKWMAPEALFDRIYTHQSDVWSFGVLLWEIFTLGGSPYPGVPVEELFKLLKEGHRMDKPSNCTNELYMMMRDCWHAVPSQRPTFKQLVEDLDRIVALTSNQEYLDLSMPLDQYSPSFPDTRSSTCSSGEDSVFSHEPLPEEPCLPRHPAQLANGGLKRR

T1 sequence (P06239 whole entry, species assumed, the tested form may be a part): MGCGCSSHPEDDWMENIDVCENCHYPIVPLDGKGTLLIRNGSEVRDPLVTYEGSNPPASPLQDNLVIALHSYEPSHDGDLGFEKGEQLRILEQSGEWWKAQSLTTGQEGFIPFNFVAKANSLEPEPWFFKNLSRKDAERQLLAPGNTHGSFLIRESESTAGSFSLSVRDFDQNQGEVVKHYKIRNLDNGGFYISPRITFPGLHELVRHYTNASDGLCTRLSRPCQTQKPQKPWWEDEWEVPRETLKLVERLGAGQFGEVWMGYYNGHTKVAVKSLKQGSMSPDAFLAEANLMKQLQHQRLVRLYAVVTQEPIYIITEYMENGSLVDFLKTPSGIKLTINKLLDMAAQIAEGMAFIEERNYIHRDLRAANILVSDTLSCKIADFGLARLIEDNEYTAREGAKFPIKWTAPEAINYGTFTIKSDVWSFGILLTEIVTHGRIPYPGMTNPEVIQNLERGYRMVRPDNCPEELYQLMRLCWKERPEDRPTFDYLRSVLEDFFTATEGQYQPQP

IC50 [1] | IC50 [2] | IC50 [3] | IC50 [4] | IC50 [5] | IC50 [6] | IC50 [7] | IC50 [8] | IC50 [9] | IC50 [10] | IC50 [11] | IC50 [12] | SMILES
0.827 to 4.96 µM | > 9.31 µM | > 9.31 µM | > 9.31 µM | > 9.31 µM | > 9.31 µM | < 0.827 µM | < 0.827 µM | > 9.31 µM | < 0.827 µM | > 9.31 µM | < 0.827 µM | COc1cc(Nc2ncnc(-n3c(Nc4ccc(C)cc4)nc4ccccc43)n2)cc(OC)c1OC [Compound 385]
4.96 to 7.24 µM | > 9.31 µM | > 9.31 µM | > 9.31 µM | > 9.31 µM | > 9.31 µM | < 0.827 µM | < 0.827 µM | > 9.31 µM | 0.827 to 4.96 µM | > 9.31 µM | < 0.827 µM | COc1cc(Nc2ncnc(-n3c(Nc4cccc(C)c4)nc4ccccc43)n2)cc(OC)c1OC [Compound 386]
0.821 to 4.92 µM | > 9.23 µM | > 9.23 µM | > 9.23 µM | > 9.23 µM | > 9.23 µM | < 0.821 µM | < 0.821 µM | > 9.23 µM | < 0.821 µM | > 9.23 µM | 0.821 to 4.92 µM | COc1cc(Nc2ncnc(-n3c(Nc4ccc(F)cc4)nc4ccccc43)n2)cc(OC)c1OC [Compound 387]
0.782 to 4.69 µM | > 8.8 µM | > 8.8 µM | > 8.8 µM | > 8.8 µM | > 8.8 µM | 0.782 to 4.69 µM | > 8.8 µM | > 8.8 µM | 0.782 to 4.69 µM | > 8.8 µM | 4.69 to 6.84 µM | COc1cc(Nc2ncnc(-n3c(Nc4ccc(C(C)C)cc4)nc4ccccc43)n2)cc(OC)c1OC [Compound 388]
< 0.779 µM | 4.67 to 6.82 µM | 0.779 to 4.67 µM | > 8.76 µM | > 8.76 µM | 6.82 to 8.76 µM | 0.779 to 4.67 µM | 0.779 to 4.67 µM | 4.67 to 6.82 µM | 0.779 to 4.67 µM | > 8.76 µM | 4.67 to 6.82 µM | COc1cc(Nc2ncnc(-n3c(Nc4cccc(C(=O)O)c4)nc4ccccc43)n2)cc(OC)c1OC [Compound 390]
0.923 to 5.54 µM | 0.923 to 5.54 µM | 0.923 to 5.54 µM | > 10.4 µM | > 10.4 µM | 8.07 to 10.4 µM | < 0.923 µM | < 0.923 µM | > 10.4 µM | 0.923 to 5.54 µM | > 10.4 µM | 0.923 to 5.54 µM | COc1cc(Nc2ncnc(Nc3cc(-c4ccccc4)nn3C)n2)cc(OC)c1OC [Compound 394]
6.93 to 10.1 µM | 10.1 to 13 µM | 6.93 to 10.1 µM | > 13 µM | 1.15 to 6.93 µM | > 13 µM | < 1.15 µM | < 1.15 µM | 1.15 to 6.93 µM | 1.15 to 6.93 µM | > 13 µM | < 1.15 µM | NC(=O)c1cccc(Nc2ncnc(-n3c(N)nc4ccccc43)n2)c1 [Compound 395]
1.15 to 6.93 µM | > 13 µM | 1.15 to 6.93 µM | > 13 µM | < 1.15 µM | 6.93 to 10.1 µM | < 1.15 µM | < 1.15 µM | 1.15 to 6.93 µM | 1.15 to 6.93 µM | 6.93 to 10.1 µM | < 1.15 µM | NC(=O)c1ccc(Nc2ncnc(-n3c(N)nc4ccccc43)n2)cc1 [Compound 396]
0.871 to 5.22 µM | 0.871 to 5.22 µM | 5.22 to 7.62 µM | 5.22 to 7.62 µM | > 9.79 µM | 0.871 to 5.22 µM | < 0.871 µM | 0.871 to 5.22 µM | 7.62 to 9.79 µM | < 0.871 µM | > 9.79 µM | 0.871 to 5.22 µM | COc1cc(Nc2ncnc(Nc3ccc(OCc4ccccc4)cc3)n2)cc(OC)c1OC [Compound 926]
< 1.02 µM | < 1.02 µM | > 11.5 µM | > 11.5 µM | 6.12 to 8.92 µM | < 1.02 µM | < 1.02 µM | < 1.02 µM | > 11.5 µM | < 1.02 µM | > 11.5 µM | 1.02 to 6.12 µM | COc1cc(Nc2ncnc(Nc3ccc4[nH]ccc4c3)n2)cc(OC)c1OC [Compound 928]

Reference: patent publication US7074789B2, “Kinase inhibitors” (Amgen Inc., priority 1999, dated 2006)
